Patent US4724238A, “Method of treating inflammatory diseases with labdan derivatives” (Hoechst Aktiengesellschaft, priority 1985, dated 1988)

Legend:
rat ear inflammation = experiment: Croton oil-induced local inflammation test in rats (topical); assay type: in vivo, rat (Charles Foster's strain); settings: applied with the irritant, 4 hours
Description: (b) Croton oil-induced local inflammation test in rats A volume of 0.05 ml of croton oil irritant (2.0 ml pyridine, 0.5 ml distilled water+7.4 ml diethyl ether+0.1 ml croton oil) is applied under ether anaesthesia to the anterior and posterior sides of the ear of rats weighing 45 to 60 g (Charles Foster's strain) with the help of a micro glass syringe and a blunt 20 gauge needle/Tonelli G., Thibault L. and Ringer I, Endocrinology 77, 625-634 (1965)/. The right untreated ear serves as control. The drug treated group receives different concentrations of compounds along with the irritant. Four hours later the animals are sacrificed. The ears are removed and punched with an 8 mm diameter cork borer. The punched portions are immediately weighed. The increase in the weight of ear is determined by the difference in the weight between the left and right ear. The topical anti-inflammatory activity of the test compound is expressed as the percent inhibition of the increase in ear weight of the irritant treated ear according to the following formula [formula] The ED50 value is calculated from the dose response curve. Six animals are used per group.

rat paw oedema = experiment: Acute carrageenin-induced rat paw oedema test (systemic); assay type: in vivo, rat (Charles Foster, male); settings: ip, paw volume at 3 and 6 hours after carrageenin
Description: (a) Acute carrageenin-induced rat paw oedema test Charles Foster male rats (120-150 g) are fasted for 18 hrs. with water ad libitum. The test compound suspended in 0.5% carboxymethyl cellulose (CMC) is given intraperitoneally. The control group receives 0.5% CMC suspension. 0.05 ml of the 0.5% carrageenin suspension is injected subcutaneously into the planter region of the left hind paw. The paw volume is determined before carrageenin injection and at 3 hours and 6 hours after injection using a Maclab volume differential meter. The percentage decrease in paw volume is calculated with the following formula: [formula] The ED50 value is calculated from the dose-response curve. Six animals are used per group.

[1] = tested on: Adjuvant-induced arthritis in rats; experiment: Adjuvant-induced arthritis test in rats, developing arthritis; assay type: in vivo, rat (Charles Foster, female); settings: i.p., once daily for 21 days
[2] = tested on: Adjuvant-induced arthritis in rats; experiment: Adjuvant-induced arthritis test in rats, established arthritis; assay type: in vivo, rat (Charles Foster, female); settings: i.p., once daily from day 15 to day 21
[3] = tested on: Acetic acid induced writhing in mice; experiment: Analgesic activity, acetic acid writhing test; assay type: in vivo, mouse (male); settings: Mus musculus, sc, 30 minutes before 0.2 ml of 3% acetic acid i.p.; observed 15 minutes
Description: Analgesic activity--Acetic acid writhing test
A test compound suspended in 0.5% carboxy methyl cellulose is given subcutaneously to the male mice (20-25 g). The control group received only the 0.5% CMC. After 30 minutes, 0.2 ml of 3% acetic acid is administered intraperitoneally. The animals are observed for 15 minutes for a characteristic stretching or writhing syndrome which is indicative of pain induced by acetic acid. Six animals are used per group.
In the test group, mice which show less than or equal to 50 percent of the mean control writhing value are considered to be protected. (Blumberg et al. Proc. Soc. Exp. Biol. Med., 118, 763-766, 1965). The percent analgesic activity is calculated as follows: [formula] The ED50 value is calculated from the dose response curve.

SMILES | ED50, croton oil induced rat ear inflammation (rat ear inflammation) | ED50 (rat paw oedema) | % inhibition of paw volume, developing arthritis ([1]; 3.0 mg/kg) | % inhibition of paw volume, established arthritis ([2]; 3.0 mg/kg) | ED50 [3] | % inhibition of paw volume, developing arthritis ([1]; 2.5 mg/kg) | % inhibition of paw volume, established arthritis ([2]; 2.4 mg/kg)
C=C[C@@]1(C)CC(=O)[C@@H]2[C@@]3(C)CCCC(C)(C)[C@@H]3[C@H](O)[C@H](OC(C)=O)[C@@]2(C)O1 [1,9-Dideoxyforskolin, 7β-acetoxy-1,9-dideoxy-8,13-epoxy-6β-hydroxy-labd-14-en-11-one] | 1.6 mg/ear | 2.2 mg/kg | 62% | 30% | 9 mg/kg | – | –
C=C[C@@]1(C)CC(=O)[C@]2(O)[C@@]3(C)[C@@H](O)CCC(C)(C)[C@@H]3[C@H](O)[C@H](OC(C)=O)[C@@]2(C)O1 [Forskolin, 7β-acetoxy-8,13-epoxy-1α,6β,9α-trihydroxy-labd-14-en-11one] | 1.15 mg/ear | 4.8 mg/kg | – | – | – | 23% | 27%
